Reference: US7998990B2, “5-phenyl-thiazol-2-yl-urea derivatives and use as PI3 kinase inhibitors” (Novartis AG, priority 2006, dated 2011)

Target: T1, phosphatidylinositol 3-kinase gamma isoform (p110?), recombinant GST-p110? (Homo sapiens, UniProt P48736)
T1 construct: made in house; host or cells: Sf9 (Spodoptera frugiperda) insect cells, baculovirus
Experiment: PI3K gamma in vitro kinase assay (Scintillation Proximity Assay, phosphate transfer from ATP to phosphatidylinositol)
Assay type: biochemical
Settings: for IC50: gamma isoform, fluorinated Example compound
From the text: Compounds of formula I and their pharmaceutically acceptable salts, hereinafter referred to alternatively as agents of the invention, are useful as pharmaceuticals.
Baculovirus expressing different fragments of PI3K? fused to GST have been previously described by Stoyanova, S., Bulgarelli-Leva, G., Kirsch, C., Hanck, T., Klinger, R., Wetzker, R., Wymann, M. P. (1997) Lipid- and protein kinase activities of G protein-coupled PI 3-kinase g: structure-activity analysis and interactions with wortmannin. Biochem. J., 324:489. Residues 38-1102 of human PI3K? are subcloned into the BamH1 and EcoR1 sites of the transfer vector pAcG2T (Pharmingen) to create a GST-PI3K? lacking the first 37 residues of PI3K?. To express the recombinant protein, Sf9 (Spodoptera frugiperda 9) insect cells are routinely maintained at densities between 3×10^5 and 3×10^6 cells/ml in serum containing TNMFH medium (Sigma). Sf9 cells, at a density of 2×10^6 are infected with human GST-PI3K[…] 34 baculovirus at a multiplicity of infection (m.o.i.) of 1 for 72 hours. The infected cells are harvested by centrifugation at 1400 g for 4 minutes at 4° C. and the cell pellets are frozen at −80° C. Both Sf9 and Sf21 cells work equally well. Sf9 cells (1×10^9) are resuspended in 100 ml cold (4° C.) lysis buffer (50 mM Tris-HCl pH 7.5, 1% Triton X-100, 150 mM NaCl, 1 mM NaF, 2 mM DTT and protease inhibitors. Cells are incubated on ice for 30 minutes then centrifuged at 15000 g for 20 minutes at 4° C. Purification of the supernatant sample is carried out at 4° C. by affinity chromatography using SEPHAROSE™ agarose gel beads coupled to glutathione (from Amersham Pharmacia Biotech). A cell lysate/GST resin ratio of 50:1 is used. The GST resin is firstly pre-rinsed to remove ethanol preservative and then equilibrated with lysis buffer. Cell lysate (supernatant) is added (usually as 50 ml lysate to 1 ml GST resin in 50 ml tubes) and gently rotated on a mixer at 4° C. for 2-3 hours. The unbound flow through sample is collected by centrifugation at 1000 g for 5 minutes at 4° C. using a DENLEY™ centrifuge. The 1 ml GST resin containing bound material is transferred to a 15 ml FALCON™ centrifuge tube for subsequent washing and elution steps. Firstly a series of 3 cycles of washings (mixing by gentle inversion) is performed with 15 ml ice cold wash Buffer A (50 mM Tris-HCl pH 7.5, 1% Triton X-100, 2 mM DTT) interspersed with centrifugation at 1000 g for 5 minutes at 4° C. A final single wash step is performed with 15 ml ice cold wash Buffer B (50 mM Tris-HCl pH 7.5, 2 mM DTT) and then centrifuged at 1000 g for 5 minutes at 4° C. The washed GST resin is finally eluted with 4 cycles of 1 ml ice cold elution buffer (50 mM Tris-HCl pH 7.5, 10 mM reduced glutathione, 2 mM DTT, 150 mM NaCl, 1 mM NaF, 50% ethylene glycol and protease inhibitors) interspersed with centrifugation at 1000 g for 5 minutes at 4° C. Samples are aliquoted and stored at −20° C.
An in vitro kinase assay was established that measures the transfer of the terminal phosphate of adenosine triphosphate to phosphatidylinositol. The kinase reaction is performed in a white 96 well microtitre plate as a Scintillation Proximity Assay. Each well contains 10 μl test compound in 5% dimethylsulphoxide and 20 μl assay mix (40 mM Tris, 200 mM NaCl, 2 mM ethyleneglycol-aminoethyl-tetraacetic acid (EGTA), 15 μg/ml phosphatidylinositol, 12.5 μM adenosine triphosphate (ATP), 25 mM MgCl2, 0.1 μCi [^33P]ATP). […]

T1 sequence (P48736 38-1102): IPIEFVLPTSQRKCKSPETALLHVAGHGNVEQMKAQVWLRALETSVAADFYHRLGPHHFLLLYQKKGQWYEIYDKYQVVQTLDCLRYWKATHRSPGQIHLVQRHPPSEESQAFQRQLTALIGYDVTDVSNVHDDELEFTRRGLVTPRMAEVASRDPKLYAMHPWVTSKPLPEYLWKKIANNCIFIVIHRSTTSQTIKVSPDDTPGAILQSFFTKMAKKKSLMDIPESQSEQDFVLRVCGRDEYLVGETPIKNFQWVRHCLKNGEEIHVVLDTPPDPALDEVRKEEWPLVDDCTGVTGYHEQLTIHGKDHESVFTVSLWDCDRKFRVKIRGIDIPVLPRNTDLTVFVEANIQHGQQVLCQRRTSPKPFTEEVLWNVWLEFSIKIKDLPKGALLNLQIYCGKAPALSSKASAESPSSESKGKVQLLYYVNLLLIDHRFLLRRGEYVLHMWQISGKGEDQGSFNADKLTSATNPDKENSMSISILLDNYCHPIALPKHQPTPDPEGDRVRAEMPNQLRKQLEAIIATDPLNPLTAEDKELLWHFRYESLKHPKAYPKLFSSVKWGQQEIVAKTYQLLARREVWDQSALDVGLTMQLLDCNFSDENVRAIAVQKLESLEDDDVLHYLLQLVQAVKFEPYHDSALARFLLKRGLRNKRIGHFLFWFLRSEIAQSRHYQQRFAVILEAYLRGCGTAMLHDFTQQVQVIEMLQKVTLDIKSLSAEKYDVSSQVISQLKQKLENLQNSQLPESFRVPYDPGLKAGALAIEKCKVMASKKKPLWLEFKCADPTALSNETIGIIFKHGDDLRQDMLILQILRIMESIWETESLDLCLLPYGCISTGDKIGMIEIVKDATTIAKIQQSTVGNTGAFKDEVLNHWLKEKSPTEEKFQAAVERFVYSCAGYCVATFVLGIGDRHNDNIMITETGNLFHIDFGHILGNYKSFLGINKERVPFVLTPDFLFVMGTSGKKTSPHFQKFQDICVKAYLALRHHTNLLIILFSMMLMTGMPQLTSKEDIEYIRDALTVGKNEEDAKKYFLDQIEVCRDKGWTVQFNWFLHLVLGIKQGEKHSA

In the case of “N-(2-Fluoro-1,1-dimethyl-ethyl-3-{3-[5-(3-fluoro-4-methanesulfonyl-phenyl)-4-methyl-thiazol-2-yl]-ureido}-propionamide [compound 1]”, the IC50 is reported as 0.046 µM.

With `Cc1nc(NC(=O)NCCc2cn(CCF)cn2)sc1-c1ccc(S(C)(=O)=O)c(F)c1` [compound 7, 1-{2-[1-(2-Fluoro-ethyl)-1H-imidazol-4-yl]-ethyl}-3-[5-(3-fluoro-4-methanesulfonyl-phenyl)-4-methyl-thiazol-2-yl]-urea] the IC50 was 0.028 µM.

`Cc1nc(NC(=O)NCCc2nnn(CCF)n2)sc1-c1ccc(S(C)(=O)=O)c(F)c1` [compound 8, 1-{2-[2-(2-Fluoro-ethyl)-2H-tetrazol-5-yl]-ethyl}-3-[5-(3-fluoro-4-methanesulfonyl-phenyl)-4-methyl-thiazol-2-yl]-urea] was tested, and the “increase in activity over the corresponding compound described in WO0521519” value (fold, from IC50 (?) values of the table) was “four-fold” and the IC50 was 0.01 µM.

With `Cc1nc(NC(=O)NCCC(=O)NCC(F)F)sc1-c1ccc(S(C)(=O)=O)c(F)c1` [compound 2, N-(2,2-Difluoroethyl)-3-{3-[5-(3-fluoro-4-methanesulfonyl-phenyl)-4-methyl-thiazol-2-yl]-ureido}-propionamide] the IC50 was 0.028 µM.
